# Experimental data as given in PMC7098370 (Toxicological Sciences, 2020).
# Where two headings read alike, the source gives them in different places. Marks after values point to notes of the source that are not given here.
# Tests used:
# [1] = Bioelution in simulated gastric fluid
# [2] = Plasma toxicokinetic study; format: in vivo, rat; conditions: for C max / K el / t 1/2 / Bioavailability (absolute): 10 mg test item/kg PO (2.48 mg Co/kg); for Bioavailability (absolute): vs CoCl2 IV
# rats [3] = conditions: cited from earlier work
# female mice = conditions: 15-day exposure, ref Finley et al. (2012), Shrivastava et al., 1996; cited from earlier work
# rats [4] = conditions: oral, ref Speijers et al. (1982), cited from earlier work
# [5] = oral administration; ref Kirchgessner et al., 1994; cited from earlier work
# [6] = test system: children with sickle cell anemia; conditions: 1.4–1.8 mg Co/kg/day, ref Gross et al., 1955, Kriss et al.; cited from earlier work
# [7] = Bioelution in simulated intestinal fluid; conditions: simulated intestinal fluid pH 7.4, 2 h
# [8] = Mass balance study: urinary and fecal Co excretion after single oral gavage; format: in vivo, rat; conditions: single oral bolus 10 mg/kg bw (2.48 mg Co/kg bw), 72 h
# [9] = Target organ study: tissue distribution of cobalt after 90-day oral exposure; format: in vivo, rat; conditions: 90-day exposure to 7.44 mg Co/kg bw/day
# Crl:CD(SD) rats = assay: Subchronic 90-day oral RDT study with reproductive toxicity screening; format: in vivo, rat; conditions: for erythroid hyperplasia in the bone marrow, incidence: 90 days; for body weight at autopsy reduced: 90-day exposure; for dose level from which hematological parameters were significantly affected: 90-day oral
# [10] = 0.08–0.19 mg Co/kg bw/day, 3-month, ref Tvermoes et al., 2014, cited from earlier work
# [11] = cobalt dichloride hexahydrate vs tricobalt tetraoxide
# [12] = listed as Co Dichloride Hexahydrate
# [13] = females, 0.74 mg Co/kg bw/day, end of 90-day oral exposure, experimental group
# [14] = females, 2.48 mg Co/kg bw/day, end of 90-day oral exposure, experimental group
# [15] = females, 7.44 mg Co/kg bw/day, end of 90-day oral exposure, experimental group
# [16] = females, 7.44 mg Co/kg bw/day, recovery group, end of 28-day recovery period
# [17] = females, 7.44 mg Co/kg bw/day, recovery group, end of 90-day oral exposure
# [18] = males, 0.74 mg Co/kg bw/day, end of 90-day oral exposure, experimental group
# [19] = males, 2.48 mg Co/kg bw/day, end of 90-day oral exposure, experimental group
# [20] = males, 7.44 mg Co/kg bw/day, end of 90-day oral exposure, experimental group
# [21] = males, 7.44 mg Co/kg bw/day, recovery group, end of 28-day recovery period
# [22] = males, 7.44 mg Co/kg bw/day, recovery group, end of 90-day oral exposure
smiles,measurement,setting,value
"O.O.O.O.O.O.[Cl-].[Cl-].[Co+2] [CoCl2, Cobalt dichloride hexahydrate]",difference in in vitro bioaccessibility (factor),[1]; [11],440
same,"Bioelution of Co in gastric fluid (% release), 2 h","[1]; simulated gastric fluid pH 1.5, 2 h, 37°C",98.5 % release
same,C max,[2]; females,2.61 ng/mL
same,K el,[2]; females,0.0508 h⁻¹
same,t 1/2,[2]; females,13.7 h
same,Bioavailability (absolute),[2]; females,~12%
same,Bioavailability (absolute),"[2]; females, listed as CoCl2.6H2O",11.7 (absolute) %
same,C max,[2]; males,2.51 ng/mL
same,K el,[2]; males,0.0489 h⁻¹
same,t 1/2,[2]; males,14.2 h
same,Bioavailability (absolute),[2]; males,approximately 7%
same,Bioavailability (absolute),"[2]; males, listed as CoCl2.6H2O",6.81 (absolute) %
same,"Bioavailability calculated from AUC as % of CoCl2 IV AUC, average of m + f: absolute bioavailability","[2]; oral, rats, average of males and females",Absolute bioavailability 9.3%
same,oral bioavailability,"[2]; single oral bolus, rats, males and females not distinguished",≤ 12%
same,dose at which adverse cardiac effects were observed,"rats [3]; male SD rats, 3-month exposure, ref Domingo et al., 1984",32 mg Co/kg bw/day
same,daily dose at which hematological effects were reported,"rats [3]; rats, 7 days, ref Shrivastava et al., 2010",12.5 mg Co/kg/day
same,dose at which histopathological changes in the thyroid were reported,female mice,approximately 50 mg Co/kg bw/day
same,Acute LD50 (mg Co/kg bw),rats [4],190 mg Co/kg bw
same,Acute LD50 (mg substance/kg bw),rats [4],below 1000 mg substance/kg bw
same,Acute LD50 (mg substance/kg bw),rats [4]; [12],766 [Speijers et al. (1982)] mg substance/kg bw
same,absorbed Co excreted in the feces via the bile,[5],around 1%
same,thyroid effects,[6],decrease in iodine uptake and the development of goiters
same,Bioelution of Co in intestinal fluid (% release),[7],79 (2 h) % release
same,Bioelution of Co in intestinal fluid / cobalt release (µg Co/g sample),[7]; [12],198 700 (2 h) µg Co/g sample
same,Fecal Excretion (%),[8]; females,98.5 % of Co applied
same,Sum of Urinary and Fecal Excretion (%),[8]; females,110.7 % of Co applied
same,Urinary Excretion (%),[8]; females,12.2 % of Co applied
same,Fecal Excretion (%),[8]; males,82.4 % of Co applied
same,Sum of Urinary and Fecal Excretion (%),[8]; males,99.5 % of Co applied
same,Urinary Excretion (%),[8]; males,17.1 % of Co applied
same,"elevation of tissue Co concentration vs control, most tissues and organs",[9],around 20 fold
same,"erythroid hyperplasia in the bone marrow, incidence","Crl:CD(SD) rats; 2.48 mg Co/kg bw/day, females",7/10
same,"erythroid hyperplasia in the bone marrow, incidence","Crl:CD(SD) rats; 2.48 mg Co/kg bw/day, males",4/10
same,"erythroid hyperplasia in the bone marrow, incidence","Crl:CD(SD) rats; 7.44 mg Co/kg bw/day, both sexes",7/10
same,premature deaths,"Crl:CD(SD) rats; 90-day oral gavage, all doses",None of the animals treated with any dose of CoCl2 died prematurely
same,LOAEL (systemic),"Crl:CD(SD) rats; 90-day oral gavage, rats",2.5 mg Co/kg bw/day
same,NOAEL (reproductive),"Crl:CD(SD) rats; 90-day oral gavage, rats",> 7.5 mg Co/kg bw/day
same,difference in RDT lowest observed adverse effect level (factor),Crl:CD(SD) rats; [11],310
same,"HGB, %Diff vs control",Crl:CD(SD) rats; [13],+0.9%
same,"HGB, mean",Crl:CD(SD) rats; [13],9.62 mmol/L
same,"RBC, %Diff vs control",Crl:CD(SD) rats; [13],+0.6%
same,"RBC, mean",Crl:CD(SD) rats; [13],8.38 ×10E6/µl
same,"Reti, %Diff vs control",Crl:CD(SD) rats; [13],−18.9%
same,"Reti, mean",Crl:CD(SD) rats; [13],12 %0 of RBC
same,"HGB, %Diff vs control",Crl:CD(SD) rats; [14],+0.3%
same,"HGB, mean",Crl:CD(SD) rats; [14],9.56 mmol/L
same,"RBC, %Diff vs control",Crl:CD(SD) rats; [14],−2.6%
same,"RBC, mean",Crl:CD(SD) rats; [14],8.11 ×10E6/µl
same,"Reti, %Diff vs control",Crl:CD(SD) rats; [14],+33.1%
same,"Reti, mean",Crl:CD(SD) rats; [14],19.7 %0 of RBC
same,body weight at autopsy reduced,"Crl:CD(SD) rats; females, 7.44 mg Co/kg bw/day",9%
same,"HGB, %Diff vs control",Crl:CD(SD) rats; [15],+13.4%
same,"HGB, mean",Crl:CD(SD) rats; [15],10.81 mmol/L
same,"RBC, %Diff vs control",Crl:CD(SD) rats; [15],+9.8%
same,"RBC, mean",Crl:CD(SD) rats; [15],9.15 ×10E6/µl
same,"Reti, %Diff vs control",Crl:CD(SD) rats; [15],+4.1%
same,"Reti, mean",Crl:CD(SD) rats; [15],15.4 %0 of RBC
same,"HCT, mean",Crl:CD(SD) rats; [16],• 45.02 • .841%
same,"HGB, mean",Crl:CD(SD) rats; [16],• 9.56 • .936 mmol/l
same,"RBC, mean",Crl:CD(SD) rats; [16],• 8.01 • .948 ×10E6/µl
same,"Reti, mean",Crl:CD(SD) rats; [16],• 15 • .232 %0 of RBC
same,"HCT, mean",Crl:CD(SD) rats; [17],• 52.3 ^** • .0025%
same,"HGB, mean",Crl:CD(SD) rats; [17],• 11.1 ^** • .0017 mmol/l
same,"RBC, mean",Crl:CD(SD) rats; [17],• 9.648 ^* • .030 ×10E6/µl
same,"Reti, mean",Crl:CD(SD) rats; [17],• 15.6 • .933 %0 of RBC
same,body weight reduced at the end of the 4-week recovery period,"Crl:CD(SD) rats; females, 7.44 mg Co/kg bw/day, test day 118",13%
same,dose level from which hematological parameters were significantly affected,Crl:CD(SD) rats; females,7.44 mg/kg bw/day
same,changes in hematological parameters compared with control,"Crl:CD(SD) rats; male rats, 90-day exposure at 7.44 mg Co/kg bw/day",up to 30%
same,"HCT, %Diff vs control",Crl:CD(SD) rats; [18],+1.2%
same,"HCT, mean",Crl:CD(SD) rats; [18],50.51%
same,"HGB, %Diff vs control",Crl:CD(SD) rats; [18],+1.4%
same,"HGB, mean",Crl:CD(SD) rats; [18],10.50 mmol/L
same,"PLT, %Diff vs control",Crl:CD(SD) rats; [18],−13.5%
same,"PLT, mean",Crl:CD(SD) rats; [18],793.6 ×10E3/µl
same,"RBC, %Diff vs control",Crl:CD(SD) rats; [18],−1.4%
same,"RBC, mean",Crl:CD(SD) rats; [18],9.33 ×10E6/µl
same,"Reti, %Diff vs control",Crl:CD(SD) rats; [18],+7.8%
same,"Reti, mean",Crl:CD(SD) rats; [18],15.2 %0 of RBC
same,"HCT, %Diff vs control",Crl:CD(SD) rats; [19],+10.3%
same,"HCT, mean",Crl:CD(SD) rats; [19],55.07%
same,"HGB, %Diff vs control",Crl:CD(SD) rats; [19],+10.7%
same,"HGB, mean",Crl:CD(SD) rats; [19],11.46 mmol/L
same,"PLT, %Diff vs control",Crl:CD(SD) rats; [19],−13.9%
same,"PLT, mean",Crl:CD(SD) rats; [19],789.2 ×10E3/µl
same,"RBC, %Diff vs control",Crl:CD(SD) rats; [19],+9.2%
same,"RBC, mean",Crl:CD(SD) rats; [19],10.33 ×10E6/µl
same,"Reti, %Diff vs control",Crl:CD(SD) rats; [19],−23.4%
same,"Reti, mean",Crl:CD(SD) rats; [19],10.8 %0 of RBC
same,body weight at autopsy reduced,"Crl:CD(SD) rats; males, 7.44 mg Co/kg bw/day",11%
same,"HCT, %Diff vs control",Crl:CD(SD) rats; [20],+24.2%
same,"HCT, mean",Crl:CD(SD) rats; [20],61.98%
same,"HGB, %Diff vs control",Crl:CD(SD) rats; [20],+25.6%
same,"HGB, mean",Crl:CD(SD) rats; [20],13.00 mmol/L
same,"PLT, %Diff vs control",Crl:CD(SD) rats; [20],−30.5%
same,"PLT, mean",Crl:CD(SD) rats; [20],637.1 ×10E3/µl
same,"RBC, %Diff vs control",Crl:CD(SD) rats; [20],+18.9%
same,"RBC, mean",Crl:CD(SD) rats; [20],11.25 ×10E6/µl
same,"Reti, %Diff vs control",Crl:CD(SD) rats; [20],−25.5%
same,"Reti, mean",Crl:CD(SD) rats; [20],10.5 %0 of RBC
same,"HCT, mean",Crl:CD(SD) rats; [21],• 49.58 • .334%
same,"HGB, mean",Crl:CD(SD) rats; [21],• 10.64 • .087 mmol/l
same,"PLT, mean",Crl:CD(SD) rats; [21],• 917.6 • .551 ×10E3/µl
same,"RBC, mean",Crl:CD(SD) rats; [21],• 9.086 • .373 ×10E6/µl
same,"Reti, mean",Crl:CD(SD) rats; [21],• 15.1 • .0544 %0 of RBC
same,"HCT, mean",Crl:CD(SD) rats; [22],• 58.68** • .002%
same,"HGB, mean",Crl:CD(SD) rats; [22],• 12.74** • .0015 mmol/l
same,"PLT, mean",Crl:CD(SD) rats; [22],• 727.2 • .223 ×10E3/µl
same,"RBC, mean",Crl:CD(SD) rats; [22],• 10.89** • .0022 ×10E6/µl
same,"Reti, mean",Crl:CD(SD) rats; [22],• 15.6 • .400 %0 of RBC
same,dose level from which hematological parameters were significantly affected,Crl:CD(SD) rats; males,2.48 mg Co/kg bw/day
same,absorption of Co,[10]; men,20%
same,absorption of Co,[10]; women,45%
